The values that follow come from publication PMC6720883, “In Vitro Inhibitory Effects of APINACA on Human Major Cytochrome P450, UDP-Glucuronosyltransferase Enzymes, and Drug Transporters” (Molecules, 2019).

pIC50: −log10 of the molar value. Like-named read-outs stand apart in the source and are kept apart here.

Holding throughout (format): in vitro ADME
One experiment concerns the target UGT1A3 (Homo sapiens, UniProt P35503). Kind of experiment: Inhibition of UGT1A3-catalyzed chenodeoxycholic acid 24-acyl-β-glucuronidation in human liver microsomes.
In the next experiment the target is CYP1A2 (Homo sapiens, UniProt P05177). As to the kind of experiment: Inhibition of CYP1A2-mediated phenacetin O-deethylase in ultrapooled human liver microsomes (cocktail, LC-MS/MS). The protocol: (§1) The inhibitory potentials (IC50 values) of APINACA and typical CYP inhibitors on CYP 1A2, 2A6, 2C8, 2C9, 2C19, 2D6, and 3A4 activities in pooled human liver microsomes were evaluated following our previous method using a cocktail of CYP substrates, followed by LC–MS/MS [43]. […] After 3 min of preincubation at 37 °C, the reaction mixtures were incubated for 15 min at 37 °C with the addition of NADPH in a shaking water bath. The reaction was stopped by adding 100 μL of ice cold methanol containing internal standards (d9-1′-hydroxybufuralol for 1′-hydroxybufuralol, 4′-hydroxydiclofenac, 7-hydroxycoumarin, 1′-hydroxymidazolam, and 4′-hydroxymephenytoin; ^13C2, ^15N-acetaminophen for acetaminophen and N-desethylamodiaquine). The incubation mixtures were centrifuged at 13,000× g for 8 min at 4 °C, and 50 μL of each supernatant was diluted with 50 μL of water. Aliquots (5 μL) of the diluted supernatants were analyzed by LC–MS/MS. All assays were performed in triplicate, and the average values were used for subsequent calculations.
(§2) To measure the time-dependent inhibition, human liver microsomes were preincubated with the various concentrations of APINACA (final concentrations of 0.1−100 μM) and NADPH for 30 min at 37 °C. Next, the reaction mixtures were incubated with a seven-CYP probe substrate cocktail or bupropion for 15 min at 37 °C. […]

A further experiment deals with CYP2C8 (Homo sapiens, UniProt P10632). As to the kind of experiment: Inhibition of CYP2C8-catalyzed amodiaquine N-deethylase in ultrapooled human liver microsomes. The protocol:
as §1, §2

Another experiment addresses CYP2C19 (Homo sapiens, UniProt P33261). Kind of experiment: Inhibition of CYP2C19-mediated [S]-mephenytoin 4′-hydroxylase in ultrapooled human liver microsomes. The protocol:
as §1, §2

The target of the next experiment is T1, OCT1 (Homo sapiens, UniProt O15245).
T1 construct: host or cells: HEK293 (transient overexpression)
T1 sequence (O15245 1-554): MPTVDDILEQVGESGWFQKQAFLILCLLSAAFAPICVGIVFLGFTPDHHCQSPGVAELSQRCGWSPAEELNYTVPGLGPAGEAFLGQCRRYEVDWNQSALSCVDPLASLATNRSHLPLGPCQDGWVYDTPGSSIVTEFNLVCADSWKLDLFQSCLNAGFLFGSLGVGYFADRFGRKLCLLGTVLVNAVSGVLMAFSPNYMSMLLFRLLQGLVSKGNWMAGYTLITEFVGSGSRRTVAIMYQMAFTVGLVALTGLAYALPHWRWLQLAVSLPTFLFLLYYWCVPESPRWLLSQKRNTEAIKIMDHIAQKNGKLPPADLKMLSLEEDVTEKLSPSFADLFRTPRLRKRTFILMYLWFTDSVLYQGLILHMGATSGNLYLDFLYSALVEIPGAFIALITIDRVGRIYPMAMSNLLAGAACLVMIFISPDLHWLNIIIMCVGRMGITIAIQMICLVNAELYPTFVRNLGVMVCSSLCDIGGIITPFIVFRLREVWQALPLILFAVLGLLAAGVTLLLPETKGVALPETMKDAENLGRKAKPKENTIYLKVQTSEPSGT
Kind of experiment: Uptake of [3-H]methyl-4-phenylpyridinium in HEK293-OCT1 cells. As for the experimental part:
To examine the effects of APINACA and typical inhibitors on transporter activity, the uptake of a probe substrate into HEK293 cells overexpressing the respective solute carrier transporters was measured in the presence of APINACA (final concentrations of 0–250 μM) or typical inhibitors for 5 min. The concentrations and probe substrates were selected as follows: 0.1 μM [3-H]MPP^+ (for OCT1 and OCT2), 0.1 μM [3-H]PAH (for OAT1), 0.1 μM [3-H]ES (for OAT3 and OATP1B1), and 0.1 μM [3-H]EG (for OATP1B3).
(§3) 12.5 (Systat Software, Inc.; San Jose, CA, USA). […] 1.1 (Systat Software, Inc.).

The target in a further experiment is T2, UGT1A9 (Homo sapiens, UniProt O60656).
T2 sequence (O60656 26-530): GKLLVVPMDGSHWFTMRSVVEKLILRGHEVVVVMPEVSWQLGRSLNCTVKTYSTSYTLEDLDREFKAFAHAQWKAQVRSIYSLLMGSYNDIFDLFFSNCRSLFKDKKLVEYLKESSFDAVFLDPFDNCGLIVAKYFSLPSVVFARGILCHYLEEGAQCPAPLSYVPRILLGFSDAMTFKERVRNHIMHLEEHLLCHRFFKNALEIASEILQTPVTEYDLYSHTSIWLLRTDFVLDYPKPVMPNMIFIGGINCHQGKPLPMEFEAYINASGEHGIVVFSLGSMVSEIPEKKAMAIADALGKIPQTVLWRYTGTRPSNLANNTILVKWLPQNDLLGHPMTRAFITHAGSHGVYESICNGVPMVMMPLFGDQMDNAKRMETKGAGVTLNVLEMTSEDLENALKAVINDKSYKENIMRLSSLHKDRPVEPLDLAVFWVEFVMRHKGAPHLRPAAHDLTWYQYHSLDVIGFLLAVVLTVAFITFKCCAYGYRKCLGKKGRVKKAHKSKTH
Kind of experiment: Inhibition of UGT1A9-catalyzed mycophenolic acid glucuronidation in human liver microsomes. The note with it: IC50 UGT1A9 mycophenolic acid glucuronidation, pooled human liver microsomes. On the set-up: […]; tissue Corning Life Sciences.
Excerpt: as §3

Sequence of CYP2C19 (P33261 whole entry): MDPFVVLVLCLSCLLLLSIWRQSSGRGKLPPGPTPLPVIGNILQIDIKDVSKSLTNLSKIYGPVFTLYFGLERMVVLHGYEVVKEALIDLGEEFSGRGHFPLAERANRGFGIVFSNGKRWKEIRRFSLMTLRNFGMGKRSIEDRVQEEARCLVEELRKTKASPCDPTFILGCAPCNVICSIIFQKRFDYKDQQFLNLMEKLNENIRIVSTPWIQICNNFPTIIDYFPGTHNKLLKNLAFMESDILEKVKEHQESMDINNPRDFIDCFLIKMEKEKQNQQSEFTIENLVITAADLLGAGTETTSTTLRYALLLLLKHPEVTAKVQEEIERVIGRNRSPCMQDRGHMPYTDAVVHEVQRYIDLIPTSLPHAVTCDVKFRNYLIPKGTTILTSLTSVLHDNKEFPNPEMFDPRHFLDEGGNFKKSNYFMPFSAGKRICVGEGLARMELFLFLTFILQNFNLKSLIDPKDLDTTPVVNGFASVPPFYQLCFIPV
Sequence of CYP2C8 (P10632 whole entry): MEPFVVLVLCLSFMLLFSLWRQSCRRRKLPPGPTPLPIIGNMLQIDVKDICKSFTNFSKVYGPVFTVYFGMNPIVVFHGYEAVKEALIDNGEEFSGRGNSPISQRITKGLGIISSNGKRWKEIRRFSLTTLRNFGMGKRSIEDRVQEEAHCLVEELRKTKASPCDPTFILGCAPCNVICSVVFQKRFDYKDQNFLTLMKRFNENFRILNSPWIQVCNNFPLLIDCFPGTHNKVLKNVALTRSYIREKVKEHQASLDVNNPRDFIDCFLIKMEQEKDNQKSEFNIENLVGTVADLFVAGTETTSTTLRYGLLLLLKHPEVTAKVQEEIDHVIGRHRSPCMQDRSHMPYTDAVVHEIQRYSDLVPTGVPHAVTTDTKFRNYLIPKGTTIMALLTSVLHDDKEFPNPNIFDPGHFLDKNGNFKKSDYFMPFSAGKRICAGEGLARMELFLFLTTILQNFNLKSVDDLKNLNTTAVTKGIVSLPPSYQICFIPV
Sequence of CYP1A2 (P05177 whole entry): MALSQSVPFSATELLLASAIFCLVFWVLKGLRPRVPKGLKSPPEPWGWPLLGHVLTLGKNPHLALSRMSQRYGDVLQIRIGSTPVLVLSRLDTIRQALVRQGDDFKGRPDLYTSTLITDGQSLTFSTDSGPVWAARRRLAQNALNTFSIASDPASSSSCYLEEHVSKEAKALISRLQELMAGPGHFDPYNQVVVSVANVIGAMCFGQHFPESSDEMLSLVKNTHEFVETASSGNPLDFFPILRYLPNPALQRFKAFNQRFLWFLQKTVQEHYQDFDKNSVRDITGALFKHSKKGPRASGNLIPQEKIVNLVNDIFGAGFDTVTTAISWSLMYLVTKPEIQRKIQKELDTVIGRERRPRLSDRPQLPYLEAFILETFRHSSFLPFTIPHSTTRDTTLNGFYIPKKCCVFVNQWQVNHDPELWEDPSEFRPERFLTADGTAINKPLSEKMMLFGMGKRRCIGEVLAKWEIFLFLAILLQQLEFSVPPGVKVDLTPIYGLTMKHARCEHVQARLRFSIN
Sequence of UGT1A3 (P35503 29-534): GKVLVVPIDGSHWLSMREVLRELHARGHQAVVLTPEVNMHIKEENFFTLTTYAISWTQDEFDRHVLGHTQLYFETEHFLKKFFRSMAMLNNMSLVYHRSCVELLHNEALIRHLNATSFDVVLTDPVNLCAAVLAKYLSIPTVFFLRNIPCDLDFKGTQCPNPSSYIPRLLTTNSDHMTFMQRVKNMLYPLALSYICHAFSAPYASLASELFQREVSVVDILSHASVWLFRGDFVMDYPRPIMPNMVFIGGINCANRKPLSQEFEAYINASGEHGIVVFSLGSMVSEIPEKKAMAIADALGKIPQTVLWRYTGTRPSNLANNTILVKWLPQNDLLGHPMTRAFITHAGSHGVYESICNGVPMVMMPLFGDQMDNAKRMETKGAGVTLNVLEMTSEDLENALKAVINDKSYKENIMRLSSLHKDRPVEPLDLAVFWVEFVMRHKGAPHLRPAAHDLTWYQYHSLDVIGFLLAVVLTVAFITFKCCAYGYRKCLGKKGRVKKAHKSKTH
Protocol for UGT1A3: The inhibitory effect of APINACA and typical UGT inhibitors on UGT1A1, UGT1A3, UGT1A4, UGT1A6, UGT1A9, and UGT2B7 were evaluated following our previous method by LC–MS/MS after incubation of ultrapooled human liver microsomes with a cocktail of UGT substrates [44]. […] The reactions were initiated by adding UDPGA, and the incubation continued for 60 min at 37 °C in a shaking water bath. The reactions were terminated by adding 50 μL of ice-cold acetonitrile containing internal standards (propofol glucuronide for chenodeoxycholic acid 24-acyl-β-glucuronide and mycophenolic acid glucuronide; and meloxicam for SN-38 glucuronide, trifluoperazine glucuronide, N-acetylserotonin β-D-glucuronide, and naloxone 3-β-D-glucuronide). The incubation mixtures were centrifuged at 13,000× g for 8 min at 4 °C. Next, 50 μL of each supernatant of A and B set was mixed, and aliquots (5 μL) were analyzed by LC–MS/MS. All assays were performed in triplicate, and the average values were used in calculations.
To measure the time-dependent inhibition, human liver microsomes were preincubated with the various concentrations of APINACA (final concentrations of 0.1–100 μM) and UDPGA for 30 min at 37 °C. Next, the reaction mixtures were incubated with UGT probe substrate cocktail sets for 60 min at 37 °C. The control reaction was performed by adding methanol instead of the test compounds.

Regarding `CCCCCn1nc(C(=O)NC23CC4CC(CC(C4)C2)C3)c2ccccc21` [APINACA, N-(1-adamantyl)-1-pentyl-1H-indazole-3-carboxamide], the pIC50 against UGT1A3 was under 4.00; on UGT1A3 (read-out: IC50 UGT1A3 chenodeoxycholic acid glucuronidation, with 30-min preincubation, pooled human liver microsomes, 30-min preincubation with UDPGA (○)), under 4.00; at CYP1A2, under 4.00; against CYP2C8, under 4.00; on CYP2C19 it was under 4.00; against OCT1, under 3.60. Further, the pIC50 on UGT1A9 (with 30-min preincubation, 30-min preincubation with UDPGA (○)) was 4.51; against UGT1A9 (without preincubation, 0.2 µM mycophenolic acid) it was 4.49. Besides, the IC50 at CYP1A2 (read-out: IC50 (μM) With Preincubation, CYP1A2 phenacetin O-deethylase, ultrapooled human liver microsomes, 30-min preincubation with NADPH) is over 100 µM; at CYP2C8 (read-out: IC50 (μM) With Preincubation, CYP2C8 amodiaquine N-deethylase, ultrapooled human liver microsomes, 30-min preincubation with NADPH) it was over 100 µM; at CYP2C19 (read-out: IC50 (μM) With Preincubation, CYP2C19 [S]-mephenytoin 4′-hydroxylase, ultrapooled human liver microsomes, 30-min preincubation with NADPH), over 100 µM.
